Results: patent US9359451B2, “Methods and compositions for treating trauma-hemorrhage using estrogen and derivatives thereof” (THE UAB RESEARCH FOUNDATION, priority 2012, dated 2016)

Columns and labels:
[1] = tested on: mean arterial blood pressure (MAP); assay: Mean arterial blood pressure spike after iv administration in hemorrhaged rats; assay type: in vivo, rat; conditions: for “spike” in mean arterial blood pressure (MAP) just after administration: rapid iv injection in ~1 min at MBO
Excerpt: An additional practical matter to be resolved was removing or dampening the ever-present “spike” in mean arterial blood pressure (MAP) observed just after administration of EE-3-SO4, which was also observed with E2-CD and E2-SO4. Because this could be a threat to the hemorrhage patient by having this transient pressure rise destabilize and eject nascent hemostatic “plugs” in damaged vessels, a solution was developed for the potential problem. By giving the iv bolus of […] in a slightly longer interval over 5 min starting at MBO rather than a more rapid injection in ˜1 min (i.e., a “slow push”), the benefits of EE-3-SO4 remained while the MAP “spike” was removed. To determine the maximum reduction in the blood pressure spike studies were further conducted with a push over a 10 min period.

injured brain = assay: Traumatic brain injury: FDG-PET/CT, diffusion tensor imaging and MRI edema; assay type: in vivo, rat; conditions: FIG. 43; day 1 and day 7 vs saline vehicle
Experimental: (§1) In a second experiment, the efficacy of E2-SO4 treatment for TBI in a lateral fluid percussion (LFP) model was examined. This involved 6 groups of rats (n=5/group). All rats received a craniectomy. Groups 1, 2, 4 and 5 received LFP injury. Groups 1 and 4 were treated with E2 (1 mg/kg) 1 hr post-injury, groups 2 and 5 were vehicle (Veh)-treated and groups 3 and 6 were sham. Groups 1-3 underwent intracranial pressure (ICP), cerebral perfusion pressure (CPP) and partial oxygen pressure (pbtO2) monitoring. Groups 4-6 underwent fludoexoyglucose (FDG)-PET/CT and diffusion tensor imaging (DTI) analysis on days 1 and 7 post-induction. Relative standard uptake values (SUV) of upper half of brain to central value, fractional anisotropy (FA) and apparent diffusion coefficient (ADC) maps were calculated.
Rats were either treated with E2 or a saline vehicle control, where treatment is administered 1 hour after injury. […] The former is the area of deranged nerves, while the latter constitutes intact nerves.

Male Sprague Dawley rats = assay: 6 hour survival after soft tissue trauma and 60% hemorrhage without resuscitation; assay type: in vivo, rat; conditions: for survival from 60% blood loss: FIG. 47, 6 hour interval after MBO, all saline vehicle controls died; for survival from 60% blood loss / survival percentage for 6 hr: no resuscitation
Experimental: Note that experimental conditions were sufficiently stringent that all saline vehicle control hemorrhaged rats died. The number of subject rats was vehicle control-20, E2-SO4-21, and EE3-SO4-20. Note that the time to begin the 6 hour interval starts after the maximum bleed out (MBO). It takes approximately 45 minutes to attain the MBO. Also please note that no resuscitation is given for the duration of the 6 hour test.
Survival studies with ethinyl 17α-estradiol-3-sulfate (EE3-SO4) in rats subjected to soft tissue trauma and 60% hemorrhage were performed as has been described for E2-SO4 and E2-cyclodextrin. Briefly, Male Sprague Dawley rats were anesthetized with isoflurane and received a 5 cm laparotomy. Cannulation was performed of 2 femoral arteries (one for bleeding and the one for blood pressure monitoring) and one femoral vein to administer drug or saline. Rats were bled to 62.9% total blood volume within 45 min with a mean arterial blood pressure of 40 mmHg achieved in 10 min and maintained at the pressure throughout the bleeding procedure. At the point of maximum bleed out (MBO), estrogen compounds were administered. Survival was monitored for 6 hours following MBO.
The optimum dose of EE-3-SO4 to promote rat survival for 6 hr was determined. The doses of 0.1 mg/kg (n=6), 0.3 mg/kg (n=6), 1.0 mg/kg (n=7) and 3.0 mg/kg (n=6) were used. The respective survival percentages were 16%, 50%, 87% and 50%, respectively (FIG. 41). Vehicle controls were matched for each group and the numbers of test rats were identical as well. No vehicle controls of any group survived for 6 hr (i.e., 100% death).

[2] = tested on: Sprague-Dawley adult male rats; assay: Traumatic brain injury (lateral fluid percussion): ICP, CPP and pbtO2 monitoring; assay type: in vivo, rat; conditions: for intracranial pressure vs untreated vehicle controls: FIG. 44, measured over a 120 min period
Experimental: Sprague-Dawley adult male rats were divided into 4 groups: vehicle, E2-SO4 (1 mg/kg), sham+vehicle and sham+E2-SO4; n=5/group. The TBI model was lateral fluid percussion injury (LFP), induced via a hydraulic pressure pulse to the anesthetized rat's exposed brain. This was introduced through a burr hole in the lateral skull prepared one day prior to LFP. A single iv dose of E2-SO4 or saline vehicle was administered 1 hr after LFP. Physiological parameters were measured 24 hr post-injury.
as §1
FIG. 48B is a plot of cerebral perfusion pressure, which is a derivative of mean arterial pressure less ICP. […] The X axis is shown for an extended 2 hours to confirm stability for the various probes used.
The clinical manifestation of edema after TBI can be seen as increased intracranial pressure, with lower brain perfusion pressure and reduced oxygen tension. […] FIG. 44 compares treatments for TBI with hormones, measured over a 120 min period to control the effects of the invasive probe on pressures. The treatments are progesterone (T+progesterone: magenta), progesterone plus E2-SO4 (T+E+P: brown), E2-SO4 (T+E2SO4: red) and EE-3-SO4 (T+EE-3SO4: yellow).

isolated vascular rings = assay: Vascular reactivity of isolated vascular rings in a physiological bath; set-up: species or system rat or pig
Experimental: Data to delineate the mechanism of action for EE-3-SO4 vis-à-vis effects on the cardiovascular system was acquired. While it is well known that estrogens act on the vascular system by a variety of mechanisms including vasorelaxation per se, specific confirmation of this fact for EE-3-SO4 was needed. […] Vessels are contracted by a variety of agents (i.e., endothelin-1, phenylephrine). The action(s) are measured with a force transducer and recorded digitally. […] (see FIG. 42).

Male SD rats = assay: Survival and blood pressure after trauma-hemorrhage with 60% blood loss and no fluid resuscitation; assay type: in vivo, rat; conditions: FIG. 21; trauma and major blood loss, crystalloid resuscitation after initial 3-hour interval; all untreated controls died within 3 hours
Experimental: 16 rats were subjected to 60% removal of blood volume, using the same protocol found in Example 5.
Furthermore, crystalloid fluid resuscitation was administered following an initial 3-hour interval after the trauma and major blood loss, and rats were followed for 7 days. It has been observed that rats which survive for the initial 3 hours uniformly go on to survive for prolonged period of time and were then sacrificed. The survival rate is 68% for estrogen-treated rats, while all untreated control rats have died within the initial 3-hour interval (see FIG. 21).
Although E2 administration after trauma-hemorrhage (T-H) and fluid resuscitation produces salutary effects on organ functions, it was not known if E2 has any beneficial effects after major blood loss in the absence of fluid resuscitation. Male SD rats ˜250 g) underwent T-H (tissue trauma, BP 40 mmHg in 10 min and maintained at that BP by further blood withdrawal until maximum bleed out (MBO, 60% of total blood volume) occurred (45:t5 min)). E2 i.v. (1 mg/Kg, 0.4 ml/Kg volume, i.e., 120 μL/300 g body weight) or vehicle (cyclodextrin, CD) was then infused. No additional fluid was given for 3 hours. If rats survived, they received Ringer's lactate, 4× the MBO volume. A custom-fabricated 31p coil was placed on the surface of the rat's liver after laparotomy in another group, and spectra acquired using 4.7T NMR spectroscopy via a 31p coil in real time before and during hemorrhagic shock. Shock increased phosphomonoester and Pi with a concomitant decrease in β-ATP in both groups.

C[C@]12CC[C@@H]3c4ccc(OS(=O)(=O)O)cc4CC[C@H]3[C@@H]1CC[C@@H]2OS(=O)(=O)O [E2-SO4, 17-β-estradiol 3, 17 disulfate]
“spike” in mean arterial blood pressure (MAP) just after administration [1]: also observed
edema in the injured brain (injured brain): can reduce edema in the injured brain
survival from 60% blood loss (Male Sprague Dawley rats): 66%
intracranial pressure vs untreated vehicle controls [2]: greatly reduce the pressure
pbtO2 (brain tissue oxygen partial pressure) ([2]; TBI (LFP), 1 mg/kg iv 1 hr after injury, 24 hr post-injury, vehicle 15.8±1.3, sham 39.6): 34.1±1.6 mmHg
ICP (intracranial pressure) ([2]; TBI (LFP), 1 mg/kg iv 1 hr after injury, measured 24 hr post-injury, TBI vehicle 17.4±0.5, sham 4.7): 7±0.4 mmHg

C#C[C@]1(O)CC[C@H]2[C@@H]3CCc4cc(OS(=O)(=O)O)ccc4[C@H]3CC[C@@]21C [EE-3-SO4, ethinyl 17α-estradiol-3-sulfate]
reduction in the blood pressure spike with slow push ([1]; iv bolus over 5 min starting at MBO, no further benefit at 10 minutes): complete reduction at 5 minutes
“spike” in mean arterial blood pressure (MAP) just after administration [1]: observed
edema in the injured brain (injured brain): can reduce edema in the injured brain
potency on a molar equivalent basis (isolated vascular rings; FIG. 42, compared with E2-SO4): more potent than E2-SO4
range of doses with linear response in promoting vessel relaxation (isolated vascular rings; vessels contracted by endothelin-1 or phenylephrine, Kreb's buffer): 10 to 100000 nM
survival percentage for 6 hr (Male Sprague Dawley rats; 0.1 mg/kg at MBO, no vehicle controls survived): 16%
survival percentage for 6 hr (Male Sprague Dawley rats; 0.3 mg/kg at MBO): 50%
survival percentage for 6 hr (Male Sprague Dawley rats; 1.0 mg/kg at MBO): 87%
survival percentage for 6 hr (Male Sprague Dawley rats; 3.0 mg/kg at MBO): 50%
survival from 60% blood loss (Male Sprague Dawley rats): 80%
survival from 60% blood loss (Male Sprague Dawley rats; listed as EE3-SO4): exhibits enhanced survival as compared to E2-sulfate
optimum dose to promote rat survival for 6 hr (Male Sprague Dawley rats; doses 0.1, 0.3, 1.0 and 3.0 mg/kg tested): 1.0 mg/kg
intracranial pressure vs untreated vehicle controls [2]: greatly reduce the pressure

CN[C@@H](CCCNC(=N)N)C(=O)O [methyl arginine]
antagonism of EE-3-SO4's vessel relaxation (isolated vascular rings; antagonist added to EE-3-SO4): relaxation can be inhibited

CC(=O)[C@H]1CC[C@H]2[C@@H]3CCC4=CC(=O)CC[C@]4(C)[C@H]3CC[C@]12C [progesterone]
intracranial pressure vs untreated vehicle controls [2]: greatly reduce the pressure

estrogen
survival rate (Male SD rats): 68%
